Test results: patent US7566737B2 (Genfit, priority 2002, dated 2009)

How the values were obtained:
C57Black/6 mice = assay: Prophylactic neuroprotection, cerebral ischemia-reperfusion model (middle cerebral artery occlusion); format: in vivo, mouse; conditions: gavage 200 mg/kg/day for 14 days before occlusion; 60 minutes occlusion, 24 hours reperfusion; untreated 37
Protocol: C57 black/6 mice (wild-type) were used for this experiment. Animals were maintained on a 12 hour light-dark cycle at a temperature of 20° C.±3° C. Water and food were available ad libitum. Food intake and weight gain were recorded all along the experiment. The inventive compounds (200 mg/kg/day) or the vehicle (0.5% carboxycellulose (CMC)) were administered to the animals by gavage, for 14 days before ischemia induction in the middle cerebral artery.
Animals were anesthetized by intraperitoneal injection of 300 mg/kg chloral hydrate. A rectal probe was inserted and body temperature was maintained at 37° C.±0.5° C. Blood pressure was monitored throughout the experiment. Under a surgical microscope, the right carotid artery was exposed by a median incision in the neck. […]
(§1) Twenty-four hours after reperfusion, animals previously treated or not with the compounds were euthanized by pentobarbital overdose. […] Areas were measured and the volume of the infarct and the two hemispheres was calculated by the following formula: (corrected infarct volume=infarct volume−(volume of right hemisphere−volume of left hemisphere)) to compensate for cerebral oedema. […]

C57 black/6 mice = assay: Acute neuroprotection, cerebral ischemia-reperfusion model (middle cerebral artery occlusion); format: in vivo, mouse; conditions: 200 mg/kg/day for 72 hours after occlusion; untreated 41
Protocol: Animals such as those described previously were used for this experiment. Animals were anesthetized by intraperitoneal injection of 300 mg/kg chloral hydrate. A rectal probe was inserted and body temperature was maintained at 37° C.±0.5° C. Blood pressure was monitored throughout the experiment. Under a surgical microscope, the right carotid artery was exposed by a median incision in the neck. The pterygopalatine artery was ligated at its origin and an arteriotomy was fashioned in the external carotid artery so as to insert a nylon monofilament, which was gently advanced to the common carotid artery and then into the internal carotid artery so as to occlude the origin of the middle cerebral artery. The filament was withdrawn one hour later to allow reperfusion.
Animals first subjected to ischemia-reperfusion were treated with the inventive compounds by the oral or systemic route one or more times after reperfusion.
as §1, with “Seventy-two” for “Twenty-four”, “overdose. Brains were rapidly frozen and sliced. Sections were stained with cresyl violet.” for “overdose.”

[1] = test system: hApoE2 Knock-in transgenic mice; assay: Effects on triglycerides and cholesterol metabolism in vivo; parameters: species or system mouse
Protocol: Treatment of animals: hApoE2 knock-in transgenic mice were kept on a 12-hour light/dark cycle at a constant temperature of 20±3° C. After a 1 week acclimation, mice were separated in groups of 6 animals selected such that the distribution of their body weight and plasmatic lipid levels determined before the experiment were uniform. The test compounds were suspended in carboxymethylcellulose and administered by intragastric gavage at the indicated doses, once a day for 7 or 8 days. Animals had access to food and water ad libitum. At the end of the experiment the animals were weighed and sacrificed under anesthesia. Blood was collected on EDTA. Plasma was prepared by centrifugation at 3000 rpm for 20 minutes. Organs were harvested, frozen in liquid nitrogen and stored at −80° C. for subsequent analysis.
Measurement of serum lipids: Serum lipid concentrations (total cholesterol and triglycerides) were determined by a colorimetric assay (Boehringer, Mannheim, Germany) according to the supplier's instructions.

human PPARγ = molecular target: T1, human PPARγ (Homo sapiens, UniProt P37231); assay: PPARγ/Gal4 transactivation system; format: cell-based; conditions: PPAR/Gal4 transactivation system
T1 construct: expressed in transfected cells; host or cells: RK13 or COS-7
T1 sequence (P37231 238-503 limits assumed): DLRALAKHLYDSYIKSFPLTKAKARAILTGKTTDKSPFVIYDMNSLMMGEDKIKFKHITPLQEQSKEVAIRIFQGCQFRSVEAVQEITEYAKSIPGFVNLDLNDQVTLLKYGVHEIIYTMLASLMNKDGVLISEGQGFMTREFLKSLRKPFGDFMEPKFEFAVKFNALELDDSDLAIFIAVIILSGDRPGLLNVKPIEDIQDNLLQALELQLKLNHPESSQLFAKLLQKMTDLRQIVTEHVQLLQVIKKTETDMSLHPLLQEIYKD
Protocol: (§2) PPAR activation was tested in vitro in RK13 or COS-7 fibroblast cell lines by measuring the transcriptional activity of chimeras composed of the DNA binding domain of the yeast Gal4 transcription factor and the ligand binding domain of the different PPARs. These latter results were then confirmed in cell lines according to the following protocols.
(§3) Culture protocols: RK13 were from ECACC (Porton Down, UK) and were grown in DMEM medium supplemented with 10% (V/V) fetal calf serum, 100 U/ml penicillin (Gibco, Paisley, UK) and 2 mM L-glutamine (Gibco, Paisley, UK). COS-7 cells were from ATCC and were grown in DMEM medium supplemented with 10% (V/V) fetal calf serum, 1% penicillin/streptomycine (Biochrom, AG), 1% of amino acids (Gibco) and 1% sodium pyruvate (Gibco).
(§4) The culture medium was changed every two days. Cells were kept at 37° C. in a humidified 95% air/5% CO2 atmosphere.
(§5) Description of plasmids used for transfection: The plasmids Gal4(RE)_TkpGL3, pGal4-hPPARα, pGal4-hPPARγ, pGal4-hPPARδ and pGal4-φ have been described in the literature (Raspe E et al., 1999). The pGal4-hPPARα, pGal4-hPPARγ and pGal4-hPPARδ constructs were obtained by cloning into the pGal4-φ vector PCR-amplified DNA fragments corresponding to the DEF domains of the human PPARs nuclear receptors.
(§6) Transfection of RK13: RK13 cells were seeded in 24-well culture dishes at 5×10^4 cells/well and transfected for 2 hours with the reporter plasmid Gal4(RE)_TkpGL3 (50 ng/well), the expression vectors pGal4-φ, pGal4-hPPARα, pGal4-hPPARγ and pGal-hPPARδ (100 ng/well) and the transfection efficiency control vector pRL-CMV (1 ng/well) according to the previously described protocol (Raspe E, Madsen L, Lefebvre A M, Leitersdorf I, Gelman L, Peinado-Onsurbe J, Dallongeville J, Fruchart J C, Berge R and Staels B, 1999), then incubated for 36 hours with the test compounds. RK13 cells were incubated with the different compounds at concentrations of 10, 30 and 100 μM or 1, 10 and 100 μM for 24 hours. At the end of the experiment, the cells were lysed (Gibco, Paisley, UK) and luciferase activity was determined with a Dual-Luciferase™ Reporter Assay System kit (Promega, Madison, Wis., USA) according to the supplier's instructions. The protein content of the cell extracts was then measured with the Bio-Rad Protein Assay (Bio-Rad, Munich, Germany) as directed by the supplier.
(§7) Transfection of COS7: Cells in suspension are transfected, in the presence of 10% (V/V) fetal calf serum, with 150 ng of DNA per well with a pGal4-PPAR/Gal4(RE)_TkpGL3 ratio of 1/10. Cells are then seeded in 96 well plates (4×10^4 cells/well) and incubated for 24 hours at 37° C. Activation with compounds is performed on 24 hours at 37° C. in culture medium without serum. At the end of the activation period, cells are lysed and luciferase activity is determined, using the Steady Glow Luciferase Kit (Promega), according to the supplier's instructions.

human PPARδ = molecular target: T2, human PPARδ (Homo sapiens, UniProt Q03181); assay: PPARδ/Gal4 transactivation system; format: cell-based; conditions: PPAR/Gal4 transactivation system
T2 construct: expressed in transfected cells; host or cells: RK13 or COS-7
T2 sequence (Q03181 211-439 limits assumed): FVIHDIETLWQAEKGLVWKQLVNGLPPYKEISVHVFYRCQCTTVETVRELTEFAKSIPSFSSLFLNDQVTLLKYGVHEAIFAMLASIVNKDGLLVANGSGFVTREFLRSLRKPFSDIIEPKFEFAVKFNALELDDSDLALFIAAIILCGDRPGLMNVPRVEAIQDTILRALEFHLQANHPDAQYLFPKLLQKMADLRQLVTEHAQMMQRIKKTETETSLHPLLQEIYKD
Protocol: as §2, §3, §4, §5, §6
Transfection of COS7: Cells in suspension are transfected, in the presence of 10% (V/V) fetal calf serum, with 150 ng of DNA per well with a pGal4-PPAR/Gal4(RE)_TkpGL3 ratio of 1/10. […] At the end of the activation period, cells are lysed and luciferase activity is determined, using the Steady Glow Luciferase Kit (Promega), according to the supplier's instructions.

HaCat cells = assay: Antioxidant properties on cell cultures (carboxy-H2DCFDA fluorescence, AAPH stress), keratinocytes; format: cell-based, human; conditions: 25 μM for 24 h, AAPH 750 μM
Protocol: (§8) The reduction in the intensity of the emitted fluorescence signal was determined in cells treated with the compounds in the following manner.
(§9) Prior to stress the cells with an oxidative agent such as AAPH (CAS number 2997-92-4), cells are incubated with compounds of interest at 25 μM for 24 h. Then the culture medium is discarded and cells are rinsed two times with PBS. Cells are then incubated 30 min at 37° C. with a cell-permeant indicator for reactive oxygen species that is nonfluorescent until the acetate groups are removed by intracellular esterases and oxidation occurs within the cell 5-(and-6)-carboxy-2′,7′-dichlorodihydrofluorescein diacetate (carboxy-H2DCFDA). The probes are prepared in PBS and incubated at the final concentration of 25 μM. After the incubation with the probe, cells are rinsed and incubated another 30 min with the oxidative solution containing AAPH at 750 μM in culture medium without phenol red and serum.
(§10) The fluorescence is then measured with a fluorimeter with the following wavelength, […].
(§11) Two different cell types have been tested with the inventive compounds. Human normal primary fibroblasts and HaCat cells which are a human keratinocyte cell line.

[2] = test system: Human normal primary fibroblasts; assay: Antioxidant properties on cell cultures (carboxy-H2DCFDA fluorescence, AAPH stress), fibroblasts; format: cell-based; conditions: 25 μM for 24 h, AAPH 750 μM
Protocol: as §8, §9, §10, §11

human PPARα = molecular target: T3, human PPARα (Homo sapiens, UniProt Q07869); assay: PPARα/Gal4 transactivation system; format: cell-based; conditions: PPAR/Gal4 transactivation system
T3 construct: expressed in transfected cells; host or cells: RK13 or COS-7
T3 sequence (Q07869 239-466 limits assumed): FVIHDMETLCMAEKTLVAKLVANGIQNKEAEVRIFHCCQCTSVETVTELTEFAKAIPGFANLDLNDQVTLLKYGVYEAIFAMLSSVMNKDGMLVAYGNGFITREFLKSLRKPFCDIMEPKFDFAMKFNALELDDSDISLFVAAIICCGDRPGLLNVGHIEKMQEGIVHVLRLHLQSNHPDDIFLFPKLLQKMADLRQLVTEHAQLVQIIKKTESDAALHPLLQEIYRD
Protocol: as §2, §3, §4, §5, §6, §7

[3] = test system: C57BLKS-m Lepr^db transgenic mice; assay: Antidiabetic effect on insulin and glucose; format: in vivo, mouse; conditions: 0.1 to 30 mg/Kg/day for 21 days
Protocol: Genetically modified C57BLKS-m Lepr^db mice were used to asses antidiabetic effect of the inventive compounds. Mice were randomized according to their plasma lipid, glucose and insulin contents. Treatments were administered once daily by gavage (10 ml/kg) for the duration of the treatment. For oral administrations, the drugs were suspended in CMC 1% or CMC 1%+Tween 80 0.1%. The plasma glucose was measured using a kit reagent from Biomerieux (France). The plasma insulin was measured using a solid phase two-site enzyme immunoassay from Crystal Chem Inc. (USA). The results are exemplified in FIGS. 5-1 to 5-4 which illustrate the activity of inventive compounds 29 and 62 on glucose and insulin.

[4] = 1, 3, 10 and 30 mg/kg/day for 14 days

## Cc1cc(/C=C/C(=O)c2ccc(Cl)cc2)cc(C)c1OC(C)(C)C(=O)OC(C)C [Compound 15, 1-[4-chlorophenyl]-3-[3,5-dimethyl-4-isopropyloxycarbonyldimethylmethyloxyphenyl]prop-2-en-1-one]
C57Black/6 mice
  infarct volume: 32 mm^3
C57 black/6 mice
  total corrected infarct volume: 29 mm^3

## CC(C)OC(=O)C(C)(C)Oc1ccc(/C=C/C(=O)c2ccccc2O)cc1 [Compound 42]
C57Black/6 mice
  infarct volume: 24 mm^3
C57 black/6 mice
  total corrected infarct volume: 29 mm^3

## Cc1cc(/C=C/C(=O)c2ccc(OC(F)(F)F)cc2)cc(C)c1OC(C)(C)C(=O)O [Compound 62]
[1]; 50 mg/kg/day for 7 or 8 days, FIGS. 4-13, 4-15, 4-17, 4-19
  plasma cholesterol: decrease
[1]; 50 mg/kg/day for 7 or 8 days, FIGS. 4-14, 4-16, 4-18, 4-20
  plasma triglycerides: decrease
[1]; [4]
  plasma cholesterol: decrease
  plasma triglycerides: decrease
Human PPARγ
  concentration at which maximal activity is observed: 10 µM
Human PPARδ
  concentration at which maximal activity is observed: 3 µM
HaCat cells
  antioxidant properties on cell cultures (in words): antioxidant properties
[2]
  antioxidant properties on cell cultures (in words): antioxidant properties
Human PPARα
  concentration at which maximal activity is observed: 0.3 µM
[3]
  plasma glucose level: decrease
  plasma insulin level: decrease
